Results taken from ChEMBL document CHEMBL1144584, “Identification of novel short chain 4-substituted indoles as potent alphavbeta3 antagonist using structure-based drug design” (Eur J Med Chem, 2007).

Key:
[1] = Binding affinity to Integrin […] receptor by ELISA assay; parameters: species or system Homo sapiens
Integrin alpha-V/beta-5 = Integrin alpha-V/beta-5 (Homo sapiens, UniProt P06756+P18084); experiment: Binding affinity to Integrin alpha-v-beta-5 receptor by ELISA assay; assay type: protein-complex assay
Chain of Integrin alpha-V/beta-5 (P06756 31-889 limits assumed): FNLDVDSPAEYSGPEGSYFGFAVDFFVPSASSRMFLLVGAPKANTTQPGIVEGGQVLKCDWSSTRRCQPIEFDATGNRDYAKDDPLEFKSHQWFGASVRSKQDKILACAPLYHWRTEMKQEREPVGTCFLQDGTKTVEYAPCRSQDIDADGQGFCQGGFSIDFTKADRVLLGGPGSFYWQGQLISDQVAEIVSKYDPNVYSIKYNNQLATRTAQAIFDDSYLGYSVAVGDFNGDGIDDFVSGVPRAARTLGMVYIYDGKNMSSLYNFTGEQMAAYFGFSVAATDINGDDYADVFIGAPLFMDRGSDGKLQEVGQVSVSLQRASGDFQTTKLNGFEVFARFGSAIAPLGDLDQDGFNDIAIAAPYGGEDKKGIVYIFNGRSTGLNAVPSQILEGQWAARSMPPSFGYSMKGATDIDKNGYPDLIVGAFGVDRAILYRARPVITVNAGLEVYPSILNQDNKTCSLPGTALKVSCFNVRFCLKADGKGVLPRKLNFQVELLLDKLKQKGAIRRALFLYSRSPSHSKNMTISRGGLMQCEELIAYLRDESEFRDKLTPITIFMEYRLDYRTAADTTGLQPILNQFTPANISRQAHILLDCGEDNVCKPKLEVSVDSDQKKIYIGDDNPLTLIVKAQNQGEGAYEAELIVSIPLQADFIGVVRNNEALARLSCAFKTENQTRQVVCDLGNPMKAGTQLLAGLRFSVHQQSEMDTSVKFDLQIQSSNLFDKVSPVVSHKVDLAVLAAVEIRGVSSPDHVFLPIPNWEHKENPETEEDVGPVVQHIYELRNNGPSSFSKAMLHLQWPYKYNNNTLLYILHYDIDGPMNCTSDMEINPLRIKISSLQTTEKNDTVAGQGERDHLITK
Chain of Integrin alpha-V/beta-5 (P06756 891-1048 limits assumed): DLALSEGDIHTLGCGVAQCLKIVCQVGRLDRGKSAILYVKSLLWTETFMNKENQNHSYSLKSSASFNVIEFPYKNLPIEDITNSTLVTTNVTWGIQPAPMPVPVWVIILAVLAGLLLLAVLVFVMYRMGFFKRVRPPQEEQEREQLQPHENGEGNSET
Chain of Integrin alpha-V/beta-5 (P18084 24-799 limits assumed): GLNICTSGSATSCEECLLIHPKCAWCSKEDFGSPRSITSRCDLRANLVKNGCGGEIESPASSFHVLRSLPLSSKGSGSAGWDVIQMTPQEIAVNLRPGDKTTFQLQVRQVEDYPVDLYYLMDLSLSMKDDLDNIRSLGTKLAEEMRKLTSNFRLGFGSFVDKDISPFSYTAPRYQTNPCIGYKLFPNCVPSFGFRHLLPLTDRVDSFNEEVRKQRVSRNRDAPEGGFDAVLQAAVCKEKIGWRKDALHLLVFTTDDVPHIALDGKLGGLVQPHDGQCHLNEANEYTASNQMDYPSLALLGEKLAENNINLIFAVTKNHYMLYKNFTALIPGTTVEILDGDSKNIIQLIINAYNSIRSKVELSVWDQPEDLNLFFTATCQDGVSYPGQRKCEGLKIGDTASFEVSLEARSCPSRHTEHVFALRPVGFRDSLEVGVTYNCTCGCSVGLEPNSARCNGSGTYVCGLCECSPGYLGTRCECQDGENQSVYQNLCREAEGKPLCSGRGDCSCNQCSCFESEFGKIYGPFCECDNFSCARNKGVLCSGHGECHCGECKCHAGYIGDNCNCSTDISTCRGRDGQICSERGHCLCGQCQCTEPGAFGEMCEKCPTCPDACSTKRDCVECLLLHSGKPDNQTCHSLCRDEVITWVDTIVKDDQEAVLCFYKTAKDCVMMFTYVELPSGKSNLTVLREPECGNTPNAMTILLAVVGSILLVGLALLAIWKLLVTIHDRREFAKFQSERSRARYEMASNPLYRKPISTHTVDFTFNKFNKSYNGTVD

[2] = Binding affinity to Integrin alpha-2b-beta-3a receptor by ELISA assay; parameters: species or system Homo sapiens
Integrin alpha-V/beta-3 = Integrin alpha-V/beta-3 (Homo sapiens, UniProt P05106+P06756); experiment: Binding affinity to Integrin alpha-v-beta-3 receptor by ELISA assay; assay type: protein-complex assay
Chain of Integrin alpha-V/beta-3 (P05106 27-788 limits assumed): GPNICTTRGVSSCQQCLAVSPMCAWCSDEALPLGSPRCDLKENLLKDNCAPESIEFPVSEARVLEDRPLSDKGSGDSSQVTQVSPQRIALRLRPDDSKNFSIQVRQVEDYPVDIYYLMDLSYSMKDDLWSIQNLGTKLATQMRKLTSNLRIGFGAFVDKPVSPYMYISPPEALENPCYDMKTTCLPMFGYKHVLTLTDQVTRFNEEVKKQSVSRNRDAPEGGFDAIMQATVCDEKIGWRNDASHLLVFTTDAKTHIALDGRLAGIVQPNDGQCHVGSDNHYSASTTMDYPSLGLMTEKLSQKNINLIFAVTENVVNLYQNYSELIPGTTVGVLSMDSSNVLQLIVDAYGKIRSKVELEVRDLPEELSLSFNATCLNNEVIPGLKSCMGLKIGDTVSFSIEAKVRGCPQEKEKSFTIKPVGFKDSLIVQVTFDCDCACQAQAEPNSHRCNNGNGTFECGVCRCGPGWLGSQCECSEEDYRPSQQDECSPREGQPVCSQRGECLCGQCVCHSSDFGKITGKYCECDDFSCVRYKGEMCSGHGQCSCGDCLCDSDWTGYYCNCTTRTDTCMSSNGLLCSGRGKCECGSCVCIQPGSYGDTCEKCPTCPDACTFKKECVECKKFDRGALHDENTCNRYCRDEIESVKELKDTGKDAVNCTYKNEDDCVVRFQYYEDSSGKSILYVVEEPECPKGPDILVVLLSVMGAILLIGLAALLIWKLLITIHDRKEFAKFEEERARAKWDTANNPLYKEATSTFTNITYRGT
Chain of Integrin alpha-V/beta-3 (P06756 31-889 limits assumed): as the sequence (P06756 31-889 limits assumed) above
Chain of Integrin alpha-V/beta-3 (P06756 891-1048 limits assumed): as the sequence (P06756 891-1048 limits assumed) above

[3] = Permeability from apical to basolateral side of human Caco-2 cell membrane; assay type: ADME, cell-based
[4] = Permeability from basolateral to apical side of human Caco-2 cell membrane; assay type: ADME, cell-based

Structure (SMILES) | IC50 [1] [µM] | IC50 (Integrin alpha-V/beta-5) [µM] | IC50 [2] [µM] | IC50 (Integrin alpha-V/beta-3) [µM] | Papp A→B [3] [nm/s] | Papp B→A [4] [nm/s]
O=C(O)CC(c1cccnc1)n1ccc2cc(OCCc3ccc4c(n3)NCCC4)ccc21 (centres undefined) | 0.015 | 0.00021 | > 1 |  |  | 
O=C(O)CC(c1ccc2c(c1)OCO2)n1ccc2cc(OCCc3ccc4c(n3)NCCC4)ccc21 (centres undefined) | 0.024 | 0.0005 | > 1 |  |  | 
O=C(O)CC(c1ccccc1)n1ccc2cc(CCCc3ccc4c(n3)NCCC4)ccc21 (centres undefined) | 1.1 | 0.015 | > 1 | 0.014 |  | 

The remaining compounds from weak to strong by IC50 [1], led by results:

IC50 [1] [µM] | IC50 (Integrin alpha-V/beta-5) [µM] | IC50 [2] [µM] | IC50 (Integrin alpha-V/beta-3) [µM] | Papp A→B [3] [nm/s] | Papp B→A [4] [nm/s] | Structure (SMILES)
9.4 | 0.011 | > 1 | 0.0044 |  |  | O=C(O)CC(c1cccnc1)n1ccc2c(NCc3ccc4c(n3)NCCC4)cccc21 (centres undefined)
0.25 | 0.00096 | > 1 | 0.0005 | 22 | 25 | O=C(O)CC(c1cccnc1)n1ccc2c(CCc3ccc4c(n3)NCCC4)cccc21 (centres undefined)
0.107 | 0.0011 | > 1 | 0.00096 |  |  | O=C(O)CC(c1ccccc1)n1ccc2c(CCc3ccc4c(n3)NCCC4)cccc21 (centres undefined)
0.041 | 0.00068 | > 1 |  |  |  | O=C(O)CC(c1ccccc1)n1ccc2cc(OCCc3ccc4c(n3)NCCC4)ccc21 (centres undefined)
0.014 |  | > 1 |  |  |  | CC(C)[C@H]1C(=O)N[C@@H](CCCNC(=N)N)C(=O)NCC(=O)N[C@@H](CC(=O)O)C(=O)N[C@H](Cc2ccccc2)C(=O)N1C [CILENGITIDE]
